The subject of this assay is CB-1 receptor. Put plainly: CB-1 receptor binding assay ([3H]SR141716A displacement). The note with it: inhibition of [3H]SR141716A binding; rat or human protocol not specified. The procedure:
The following assays were designed to detect compounds that inhibit the binding of [^3H] SR141716A (selective radiolabeled CB-1 ligand) and [^3H] 5-(1,1-dimethylheptyl)-2-[5-hydroxy-2-(3-hydroxypropyl)-cyclohexyl]-phenol; radiolabeled CB-1/CB-2 ligand) to their respective receptors.
PelFreeze brains (available from Pel Freeze Biologicals, Rogers, Arkansas) were cut up and placed in tissue preparation buffer (5 mM Tris HCl, pH=7.4 and 2 mM EDTA), polytroned at high speed and kept on ice for 15 minutes. The homogenate was then spun at 1,000×g for 5 minutes at 4° C. The supernatant was recovered and centrifuged at 100,000×G for 1 hour at 4° C. The pellet was then re-suspended in 25 ml of TME ([…], pH=7.4, 5 mM MgCl2, and 1 mM EDTA) per brain used. A protein assay was performed and 200 μl of tissue totaling 20 μg was added to the assay.
The test compounds were diluted in drug buffer (0.5% BSA, 10% DMSO and TME) and then 25 μl were added to a deep well polypropylene plate. [^3H] […] In the morning the filters were counted on a Wallac Betaplate™ counter (available from PerkinElmer Life Sciences™, Boston, Mass.). […]
The test compounds were diluted in drug buffer (0.5% BSA, 10% DMSO and TME) and then 25 μl were added to a deep well polypropylene plate. […] In the morning the filters were counted on a Wallac Betaplate™ counter (available from PerkinElmer Life Sciences™, Boston, Mass.).

`CC(C)N1Cc2nn(-c3ccccc3Cl)c(-c3ccc(C#N)cc3)c2C1=O` [Example 1A-2, 2-(2-chloro-phenyl)-5-isopropyl-3-(4-cyano-phenyl)-5,6-dihydro-2H-pyrrolo[3,4-c]pyrazol-4-one]: the CB-1 binding activities was 4 nM.
Turning to `CC(C)N1Cc2nn(-c3ccccc3Cl)c(-c3ccc(Cl)cc3)c2C1=O` [Example 1A-3, 2-(2-chloro-phenyl)-5-isopropyl-3-(4-chloro-phenyl)-5,6-dihydro-2H-pyrrolo[3,4-c]pyrazol-4-one], the CB-1 binding activities was found to be 2 nM.

(Values after patent US20040214856A1, “Cannabinoid receptor ligands and uses thereof” (Pfizer Inc, priority 2003, published 2004).)
